Legend:
[1] = species: Homo sapiens; assay: Liver toxicity in human assessed as induction of drug-induced liver injury by measuring verified drug-induced liver injury concern status
[2] = species: Homo sapiens; assay: Liver toxicity in human assessed as induction of drug-induced liver injury by measuring severity class index
Throughout, for DILI severity class: key of the grades not given here.

Compound	DILI_Concern [1]	DILI_severity_class [2]
OC(CCN1CCCC1)(c1ccccc1)C1CCCCC1 (configuration not stated) [PROCYCLIDINE]	No-Dili-Concern	0
CC(=O)[C@H]1CC[C@H]2[C@@H]3CCC4=CC(=O)CC[C@]4(C)[C@H]3CC[C@]12C [PROGESTERONE]	Less-Dili-Concern	2
CC(CN1c2ccccc2Sc2ccccc21)N(C)C (configuration not stated) [PROMETHAZINE]	Less-Dili-Concern	5
CCCNCC(O)COc1ccccc1C(=O)CCc1ccccc1 (configuration not stated) [PROPAFENONE]	Less-Dili-Concern	3
CC(C)[N+](C)(CCOC(=O)C1c2ccccc2Oc2ccccc21)C(C)C [PROPANTHELINE]	No-Dili-Concern	0
CC(C)c1cccc(C(C)C)c1O [PROPOFOL]	Less-Dili-Concern	3
CCC(=O)O[C@](Cc1ccccc1)(c1ccccc1)[C@H](C)CN(C)C [PROPOXYPHENE]	Less-Dili-Concern	3
CC(C)NCC(O)COc1cccc2ccccc12 (configuration not stated) [PROPRANOLOL]	Ambiguous-Dili-Concern	3
CCCc1cc(=O)[nH]c(=S)[nH]1 [PROPYLTHIOURACIL]	Most-Dili-Concern	8
NC(=O)[C@@H]1CCCN1C(=O)[C@H](Cc1cnc[nH]1)NC(=O)[C@@H]1CCC(=O)N1 [PROTIRELIN]	No-Dili-Concern	0
CNCCCC1c2ccccc2C=Cc2ccccc21 [PROTRIPTYLINE]	No-Dili-Concern	0
CN[C@@H](C)[C@@H](O)c1ccccc1 [PSEUDOEPHEDRINE]	No-Dili-Concern	0
NC(=O)c1cnccn1 [PYRAZINAMIDE]	Less-Dili-Concern	3
CN(C)C(=O)Oc1ccc[n+](C)c1 [PYRIDOSTIGMINE]	No-Dili-Concern	0
Cc1ncc(CO)c(CO)c1O [PYRIDOXINE]	No-Dili-Concern	0
CCc1nc(N)nc(N)c1-c1ccc(Cl)cc1 [PYRIMETHAMINE]	Less-Dili-Concern	3
Fc1ccccc1C1=NCC(=S)N(CC(F)(F)F)c2ccc(Cl)cc21 [QUAZEPAM]	No-Dili-Concern	0
OCCOCCN1CCN(C2=Nc3ccccc3Sc3ccccc32)CC1 [QUETIAPINE]	Less-Dili-Concern	3
C=C[C@H]1C[N@@]2CC[C@H]1C[C@@H]2[C@@H](O)c1ccnc2ccc(OC)cc12 [QUINIDINE]	Less-Dili-Concern	3
C=C[C@H]1C[N@@]2CC[C@H]1C[C@H]2[C@H](O)c1ccnc2ccc(OC)cc12 [QUININE]	Less-Dili-Concern	3
COCCCOc1ccnc(C[S+]([O-])c2nc3ccccc3[nH]2)c1C (configuration not stated) [RABEPRAZOLE]	Less-Dili-Concern	3
O=C(c1ccc(OCCN2CCCCC2)cc1)c1c(-c2ccc(O)cc2)sc2cc(O)ccc12 [RALOXIFENE]	No-Dili-Concern	0
CCC(=O)NCC[C@@H]1CCc2ccc3c(c21)CCO3 [RAMELTEON]	No-Dili-Concern	0
CNC(=C[N+](=O)[O-])NCCSCc1ccc(CN(C)C)o1 [RANITIDINE]	Less-Dili-Concern	5
COc1ccccc1OCC(O)CN1CCN(CC(=O)Nc2c(C)cccc2C)CC1 (configuration not stated) [RANOLAZINE]	No-Dili-Concern	0
C#CCN[C@@H]1CCc2ccccc21 [RASAGILINE]	Ambiguous-Dili-Concern	3

Compound	DILI_Concern [1]	DILI_severity_class [2]
CNC(=O)c1cnn(-c2nc(N)c3ncn([C@@H]4O[C@H](CO)[C@@H](O)[C@H]4O)c3n2)c1 [REGADENOSON ANHYDROUS]	No-Dili-Concern	0
CCOc1cc(CC(=O)N[C@@H](CC(C)C)c2ccccc2N2CCCCC2)ccc1C(=O)O [REPAGLINIDE]	Less-Dili-Concern	5
COC(=O)[C@H]1[C@H]2C[C@@H]3c4[nH]c5cc(OC)ccc5c4CCN3C[C@H]2C[C@@H](OC(=O)c2cc(OC)c(OC)c(OC)c2)[C@@H]1OC [RESERPINE]	No-Dili-Concern	0
CC1=C(/C=C/C(C)=C/C=C/C(C)=C/CO)C(C)(C)CCC1 [RETINOL]	Less-Dili-Concern	3
NC(=O)c1ncn([C@@H]2O[C@H](CO)[C@@H](O)[C@H]2O)n1 [RIBAVIRIN]	Ambiguous-Dili-Concern	7
Cc1cc2nc3c(=O)[nH]c(=O)nc-3n(C[C@H](O)[C@H](O)[C@H](O)CO)c2cc1C [RIBOFLAVIN]	No-Dili-Concern	0
CO[C@H]1/C=C/O[C@@]2(C)Oc3c(C)c(O)c4c(c3C2=O)C2=NC3(CCN(CC(C)C)CC3)NC2=C(NC(=O)/C(C)=C\C=C\[C@H](C)[C@H](O)[C@@H](C)[C@@H](O)[C@@H](C)[C@H](OC(C)=O)[C@@H]1C)C4=O [RIFABUTIN]	Less-Dili-Concern	5
CO[C@H]1/C=C/O[C@@]2(C)Oc3c(C)c(O)c4c(O)c(c(/C=N/N5CCN(C)CC5)c(O)c4c3C2=O)NC(=O)/C(C)=C\C=C\[C@H](C)[C@H](O)[C@@H](C)[C@@H](O)[C@@H](C)[C@H](OC(C)=O)[C@@H]1C [RIFAMPIN]	Most-Dili-Concern	8
CO[C@H]1/C=C/O[C@@]2(C)Oc3c(C)c(O)c4c(O)c(c(/C=N/N5CCN(C6CCCC6)CC5)c(O)c4c3C2=O)NC(=O)/C(C)=C\C=C\[C@H](C)[C@H](O)[C@@H](C)[C@@H](O)[C@@H](C)[C@H](OC(C)=O)[C@@H]1C [RIFAPENTINE]	Ambiguous-Dili-Concern	4
CO[C@H]1/C=C/O[C@@]2(C)Oc3c(C)c(O)c4c(O)c(c5c(nc6cc(C)ccn65)c4c3C2=O)NC(=O)/C(C)=C\C=C\[C@H](C)[C@H](O)[C@@H](C)[C@@H](O)[C@@H](C)[C@H](OC(C)=O)[C@@H]1C [RIFAXIMIN]	Ambiguous-Dili-Concern	7
Nc1nc2ccc(OC(F)(F)F)cc2s1 [RILUZOLE]	Most-Dili-Concern	8
CC(N)C12CC3CC(CC(C3)C1)C2 (configuration not stated) [RIMANTADINE]	No-Dili-Concern	0
O=P(O)(O)C(O)(Cc1cccnc1)P(=O)(O)O [RISEDRONIC ACID]	Ambiguous-Dili-Concern	3
Cc1nc2n(c(=O)c1CCN1CCC(c3noc4cc(F)ccc34)CC1)CCCC2 [RISPERIDONE]	Less-Dili-Concern	3
CC(C)c1nc(CN(C)C(=O)N[C@H](C(=O)N[C@@H](Cc2ccccc2)C[C@H](O)[C@H](Cc2ccccc2)NC(=O)OCc2cncs2)C(C)C)cs1 [RITONAVIR]	Most-Dili-Concern	8
CCN(C)C(=O)Oc1cccc([C@H](C)N(C)C)c1 [RIVASTIGMINE]	Less-Dili-Concern	3
CN(C)CCc1c[nH]c2ccc(Cn3cncn3)cc12 [RIZATRIPTAN]	No-Dili-Concern	0
CCCN(CCC)CCc1cccc2c1CC(=O)N2 [ROPINIROLE]	Less-Dili-Concern	4
CN(CCOc1ccc(CC2SC(=O)NC2=O)cc1)c1ccccn1 (configuration not stated) [ROSIGLITAZONE]	Less-Dili-Concern	3
CC(C)c1nc(N(C)S(C)(=O)=O)nc(-c2ccc(F)cc2)c1/C=C/[C@@H](O)C[C@@H](O)CC(=O)O [ROSUVASTATIN]	Less-Dili-Concern	3
[82Rb+].[Cl-] [RUBIDIUM CHLORIDE RB 82]	No-Dili-Concern	0
NC(=O)c1cn(Cc2c(F)cccc2F)nn1 [RUFINAMIDE]	Ambiguous-Dili-Concern	3
O=C(Oc1ccccc1C(=O)O)c1ccccc1O [SALSALATE]	Less-Dili-Concern	3
N#C[C@@H]1C[C@@H]2C[C@@H]2N1C(=O)[C@@H](N)C12CC3CC(CC(O)(C3)C1)C2 [SAXAGLIPTIN ANHYDROUS]	No-Dili-Concern	0
CN1[C@@H]2C[C@@H](OC(=O)[C@H](CO)c3ccccc3)C[C@H]1[C@@H]1O[C@@H]12 [SCOPOLAMINE]	No-Dili-Concern	0

Source: ChEMBL document CHEMBL4028802, “DILIrank: the largest reference drug list ranked by the risk for developing drug-induced liver injury in humans” (Drug Discov Today, 2016)
